Literature values, collected in patent US20240041828A1, “Combination Therapeutics Comprising Nrf2 Agonists and Antivirals for Treating Viral Infections” (The Regents of the University of California, priority 2022, published 2024).
Structures can show the parent of a compound that is named as a salt. Where two headings read alike, the source gives them in different places.

Tested on: human mammalian cells
Conditions: cited from earlier work

For `COC(=O)/C=C/C(=O)OC` [DMF, Dimethyl fumarate], the “concentration shown to be physiologically relevant, efficacious and non-cytotoxic” value is given as 0.1-100 μM.
For `COC1=C(OC)C(=O)C(CCCCCCCCCC[P+](c2ccccc2)(c2ccccc2)c2ccccc2)=C(C)C1=O.CS(=O)(=O)[O-]` [Mito-MES, 10-(4,5-dimethoxy-2-methyl-3,6-dioxo-1,4-cyclohexadienyl) decyl triphenylphosphonium methanesulfonate], the “concentration shown to be physiologically relevant, efficacious and non-cytotoxic” value (human mammalian cells) is listed as 10-1000 nM.
